Measured values as given in the NIST ThermoML archive (doi:10.1021/je030191w).
Numbers after ± are expanded uncertainties.

Assay: xn = mol fraction of the nth substance listed
Settings: 101 kPa, Liquid

## CCn1cc[n+](C)c1.F[B-](F)(F)F [1-ethyl-3-methylimidazolium tetrafluoroborate] + O
293.15 K, x2 = 0
  mass density: 1340.7 ± 50 kg/m3
  viscosity: 45.29 ± 2.9 mPa·s
293.15 K, x2 = 0.0995
  mass density: 1336.1 ± 50 kg/m3
  viscosity: 34.43 ± 2.3 mPa·s
293.15 K, x2 = 0.2062
  mass density: 1330 ± 50 kg/m3
  viscosity: 25.1 ± 1.7 mPa·s
293.15 K, x2 = 0.3047
  mass density: 1322.9 ± 50 kg/m3
  viscosity: 19.25 ± 1.3 mPa·s
293.15 K, x2 = 0.4034
  mass density: 1313.4 ± 50 kg/m3
  viscosity: 13.76 ± 0.98 mPa·s
293.15 K, x2 = 0.5034
  mass density: 1299.8 ± 50 kg/m3
  viscosity: 10.36 ± 0.77 mPa·s
293.15 K, x2 = 0.5998
  mass density: 1284.2 ± 50 kg/m3
  viscosity: 7.892 ± 0.61 mPa·s
293.15 K, x2 = 0.7005
  mass density: 1262 ± 50 kg/m3
  viscosity: 5.797 ± 0.48 mPa·s
293.15 K, x2 = 0.8011
  mass density: 1225.9 ± 50 kg/m3
  viscosity: 4.127 ± 0.36 mPa·s
293.15 K, x2 = 0.9027
  mass density: 1157.4 ± 50 kg/m3
  viscosity: 3.035 ± 0.27 mPa·s
298.15 K, x2 = 0
  mass density: 1336.7 ± 50 kg/m3
  viscosity: 37.19 ± 2.4 mPa·s
298.15 K, x2 = 0.0995
  mass density: 1332.1 ± 50 kg/m3
  viscosity: 29.02 ± 1.9 mPa·s
298.15 K, x2 = 0.2062
  mass density: 1326 ± 50 kg/m3
  viscosity: 21.01 ± 1.4 mPa·s
298.15 K, x2 = 0.3047
  mass density: 1318.9 ± 50 kg/m3
  viscosity: 15.96 ± 1.1 mPa·s
298.15 K, x2 = 0.4034
  mass density: 1309.5 ± 50 kg/m3
  viscosity: 11.45 ± 0.84 mPa·s
298.15 K, x2 = 0.5034
  mass density: 1296 ± 50 kg/m3
  viscosity: 8.597 ± 0.66 mPa·s
298.15 K, x2 = 0.5998
  mass density: 1280.6 ± 50 kg/m3
  viscosity: 6.975 ± 0.56 mPa·s
298.15 K, x2 = 0.7005
  mass density: 1258.4 ± 50 kg/m3
  viscosity: 4.822 ± 0.42 mPa·s
298.15 K, x2 = 0.8011
  mass density: 1222.3 ± 50 kg/m3
  viscosity: 3.499 ± 0.31 mPa·s
298.15 K, x2 = 0.9027
  mass density: 1154.2 ± 50 kg/m3
  viscosity: 2.584 ± 0.23 mPa·s
303.15 K, x2 = 0
  mass density: 1332.9 ± 50 kg/m3
  viscosity: 31.36 ± 2.1 mPa·s
303.15 K, x2 = 0.0995
  mass density: 1328.3 ± 50 kg/m3
  viscosity: 24.8 ± 1.7 mPa·s
303.15 K, x2 = 0.2062
  mass density: 1322.2 ± 50 kg/m3
  viscosity: 17.9 ± 1.2 mPa·s
303.15 K, x2 = 0.3047
  mass density: 1315.2 ± 50 kg/m3
  viscosity: 13.58 ± 0.97 mPa·s
303.15 K, x2 = 0.4034
  mass density: 1305.8 ± 50 kg/m3
  viscosity: 9.674 ± 0.72 mPa·s
303.15 K, x2 = 0.5034
  mass density: 1292.3 ± 50 kg/m3
  viscosity: 7.384 ± 0.58 mPa·s
303.15 K, x2 = 0.5998
  mass density: 1276.9 ± 50 kg/m3
  viscosity: 5.492 ± 0.47 mPa·s
303.15 K, x2 = 0.7005
  mass density: 1254.8 ± 50 kg/m3
  viscosity: 3.896 ± 0.34 mPa·s
303.15 K, x2 = 0.8011
  mass density: 1218.7 ± 50 kg/m3
  viscosity: 2.962 ± 0.27 mPa·s
303.15 K, x2 = 0.9027
  mass density: 1151.1 ± 50 kg/m3
  viscosity: 2.189 ± 0.2 mPa·s
308.15 K, x2 = 0
  mass density: 1329.6 ± 50 kg/m3
  viscosity: 25.56 ± 1.7 mPa·s
308.15 K, x2 = 0.0995
  mass density: 1324.9 ± 50 kg/m3
  viscosity: 20.53 ± 1.4 mPa·s
308.15 K, x2 = 0.2062
  mass density: 1318.9 ± 50 kg/m3
  viscosity: 14.58 ± 1 mPa·s
308.15 K, x2 = 0.3047
  mass density: 1311.9 ± 50 kg/m3
  viscosity: 10.93 ± 0.8 mPa·s
308.15 K, x2 = 0.4034
  mass density: 1302.5 ± 50 kg/m3
  viscosity: 8.187 ± 0.63 mPa·s
308.15 K, x2 = 0.5034
  mass density: 1288.9 ± 50 kg/m3
  viscosity: 6.409 ± 0.52 mPa·s
308.15 K, x2 = 0.5998
  mass density: 1273.5 ± 50 kg/m3
  viscosity: 4.707 ± 0.41 mPa·s
308.15 K, x2 = 0.7005
  mass density: 1251.4 ± 50 kg/m3
  viscosity: 3.531 ± 0.31 mPa·s
308.15 K, x2 = 0.8011
  mass density: 1215.4 ± 50 kg/m3
  viscosity: 2.555 ± 0.23 mPa·s
308.15 K, x2 = 0.9027
  mass density: 1148 ± 50 kg/m3
  viscosity: 1.898 ± 0.17 mPa·s
313.15 K, x2 = 0
  mass density: 1325.9 ± 50 kg/m3
  viscosity: 21.54 ± 1.5 mPa·s
313.15 K, x2 = 0.0995
  mass density: 1321.2 ± 50 kg/m3
  viscosity: 17.96 ± 1.2 mPa·s
313.15 K, x2 = 0.2062
  mass density: 1315.2 ± 50 kg/m3
  viscosity: 12.68 ± 0.91 mPa·s
313.15 K, x2 = 0.3047
  mass density: 1308.1 ± 50 kg/m3
  viscosity: 9.634 ± 0.72 mPa·s
313.15 K, x2 = 0.4034
  mass density: 1298.7 ± 50 kg/m3
  viscosity: 7.165 ± 0.57 mPa·s
313.15 K, x2 = 0.5034
  mass density: 1285.3 ± 50 kg/m3
  viscosity: 5.465 ± 0.46 mPa·s
313.15 K, x2 = 0.5998
  mass density: 1269.7 ± 50 kg/m3
  viscosity: 4.159 ± 0.36 mPa·s
313.15 K, x2 = 0.7005
  mass density: 1247.5 ± 50 kg/m3
  viscosity: 3.133 ± 0.28 mPa·s
313.15 K, x2 = 0.8011
  mass density: 1211.8 ± 50 kg/m3
  viscosity: 2.267 ± 0.21 mPa·s
313.15 K, x2 = 0.9027
  mass density: 1145 ± 50 kg/m3
  viscosity: 1.689 ± 0.16 mPa·s
318.15 K, x2 = 0
  mass density: 1322.2 ± 50 kg/m3
  viscosity: 18.84 ± 1.3 mPa·s
318.15 K, x2 = 0.0995
  mass density: 1317.6 ± 50 kg/m3
  viscosity: 15.93 ± 1.1 mPa·s
318.15 K, x2 = 0.2062
  mass density: 1311.6 ± 50 kg/m3
  viscosity: 11.16 ± 0.82 mPa·s
318.15 K, x2 = 0.3047
  mass density: 1304.5 ± 50 kg/m3
  viscosity: 8.324 ± 0.64 mPa·s
318.15 K, x2 = 0.4034
  mass density: 1295 ± 50 kg/m3
  viscosity: 6.357 ± 0.52 mPa·s
318.15 K, x2 = 0.5034
  mass density: 1281.6 ± 50 kg/m3
  viscosity: 4.979 ± 0.43 mPa·s
318.15 K, x2 = 0.5998
  mass density: 1266 ± 50 kg/m3
  viscosity: 3.63 ± 0.32 mPa·s
318.15 K, x2 = 0.7005
  mass density: 1243.9 ± 50 kg/m3
  viscosity: 2.584 ± 0.23 mPa·s
318.15 K, x2 = 0.8011
  mass density: 1208.2 ± 50 kg/m3
  viscosity: 2.044 ± 0.19 mPa·s
318.15 K, x2 = 0.9027
  mass density: 1141.8 ± 50 kg/m3
  viscosity: 1.53 ± 0.14 mPa·s
323.15 K, x2 = 0
  mass density: 1319.5 ± 50 kg/m3
  viscosity: 15.9 ± 1.1 mPa·s
323.15 K, x2 = 0.0995
  mass density: 1314.8 ± 50 kg/m3
  viscosity: 13.74 ± 0.98 mPa·s
323.15 K, x2 = 0.2062
  mass density: 1308.8 ± 50 kg/m3
  viscosity: 9.797 ± 0.73 mPa·s
323.15 K, x2 = 0.3047
  mass density: 1301.6 ± 50 kg/m3
  viscosity: 7.47 ± 0.59 mPa·s
323.15 K, x2 = 0.4034
  mass density: 1292 ± 50 kg/m3
  viscosity: 5.692 ± 0.48 mPa·s
323.15 K, x2 = 0.5034
  mass density: 1278.6 ± 50 kg/m3
  viscosity: 4.522 ± 0.4 mPa·s
323.15 K, x2 = 0.5998
  mass density: 1263.1 ± 50 kg/m3
  viscosity: 3.215 ± 0.29 mPa·s
323.15 K, x2 = 0.7005
  mass density: 1240.7 ± 50 kg/m3
  viscosity: 2.512 ± 0.23 mPa·s
323.15 K, x2 = 0.8011
  mass density: 1205 ± 50 kg/m3
  viscosity: 1.904 ± 0.18 mPa·s
323.15 K, x2 = 0.9027
  mass density: 1138.5 ± 50 kg/m3
  viscosity: 1.439 ± 0.14 mPa·s
